# Data reported in patent publication US9174996B2, “Protein kinase inhibitors” (Astar Biotech LLC, priority 2012, dated 2015).
# Where two headings read alike, the source gives them in different places.
# Key:
# JURKAT = assay: MTT cell viability assay, Experiment 3; format: cell-based; conditions: Homo sapiens, read-out: IC50 cell viability, Non-CML leukemia cells JURKAT
# From the text: (§1) This study evaluated the effect of the pure optical isomers on human leukemia cell viability in vitro. Ponatinib was used as the positive control. Two BCR-ABL-positive human leukemia cell lines, K562 and KU812, were used in this study. Besides, Ba/F3 cell transfectants expressing native or T315I BCR-ABL, whose viability is dependent on ectopically expressed BCR-ABL, were also used in this work. Ba/F3 cells expressing BCR-ABL^T315I were used for testing the efficiency of tested compounds on point mutation BCR-ABL^T315I, which cause drug resistance to Imatinib (Gleevec). U937 and JURKAT, two BCR-ABL-negative human leukemia cell lines, were employed to test the selectivity of tested compounds.
# (§2) Cells were seeded in 24-well plates, and treated with drugs at corresponding concentrations. Cell viability was measured using a MTT (3-(4,5-dimethylthiazol-2-yl)-2,5-diphenyltetrazolium bromide)-based colorimetric assay with a 96-well plate reader. IC50 values were calculated using the mean of two independent experiments.
# K562 = assay: MTT cell viability assay, Experiment 3; format: cell-based; conditions: Homo sapiens
# From the text: as §1, §2
# KU812 = assay: MTT cell viability assay, Experiment 3; format: cell-based; conditions: Homo sapiens
# From the text: as §1, §2
# U937 = assay: MTT cell viability assay, Experiment 3; format: cell-based; conditions: Homo sapiens
# From the text: as §1, §2
# [1] = test system: Ba/F3 harboring the T315I mutant isoform of BCR-ABL; assay: BaF3/BCR-ABL T315I mouse xenograft model, Experiment 4; format: in vivo; conditions: oral, 14 days, NOD SCID mice
# Method: The murine pro-B cell line Ba/F3 harboring the T315I mutant isoform of BCR-ABL was subcutaneously injected into NOD SCID mice (NOD.CB17-Prkdc^scid/J). […] The tumor volumes in two dimensions and the body weights of the mice were measured three times a week (volume=L×W^2×0.5).
# K562 cells [2] = assay: Cell death assay, Experiment 1 (live cells counted by trypan blue); format: cell-based; conditions: Homo sapiens, 100 nM, 48 hours, read-out: % live cells (vs control)
# K562 cells [3] = assay: Cell death assay, Experiment 2 (IC50, live cells counted by trypan blue); format: cell-based; conditions: Homo sapiens, 48 h
# Method: K562 cells (2×10^5 cells/ml) were seeded in 24-well cell culture plate and treated with DMSO or agents. After treatment in the presence of DMSO or agents for 48 h, cells were collected by centrifuging at 500 g for 5 minutes, and then cells were resuspended in appropriate volume of PBS. 10 uL of cell suspension was mixed with 10 uL of trypan blue solution and live cells were counted by TC10 (Bio-Rad, Richmond, Calif.).
# [4] = molecular target: Ba/F3 cells expressing BCR-ABL T315I (Homo sapiens, UniProt P00519, T315I, cells depend on it); assay: MTT cell viability assay, Experiment 3; format: cell-based, murine; conditions: Mean ± S.E.M, two independent experiments, read-out: IC50 cell viability, Ba/F3 cells T315I BCR-ABL
# From the text: as §1, with “Ponatinib was used as the positive control.” left out
# as §2
# [5] = molecular target: Ba/F3 cells expressing native BCR-ABL (Homo sapiens, UniProt P00519); assay: MTT cell viability assay, Experiment 3; format: cell-based, murine; conditions: Mean ± S.E.M, two independent experiments, read-out: IC50 cell viability, Ba/F3 cells Native BCR-ABL
# From the text: as §1, with “Ponatinib was used as the positive control.” left out
# as §2
# [6] = MTT, Mean ± S.E.M, two independent experiments
# [7] = K562, MTT, Mean ± S.E.M, two independent experiments, read-out: IC50 cell viability, CML leukemia cells K562
# [8] = KU812, MTT, Mean ± S.E.M, two independent experiments, read-out: IC50 cell viability, CML leukemia cells KU812
# [9] = U-937, MTT, Mean ± S.E.M, two independent experiments, read-out: IC50 cell viability, Non-CML leukemia cells U937
IC50 (JURKAT; [6]) [nM],IC50 (K562; [7]) [nM],IC50 (U937; [9]) [nM],melting point [°C],SMILES,IC50 (JURKAT) [nM],"IC50 (K562; K562, read-out: IC50 cell viability, CML leukemia cells K562) [nM]","IC50 (KU812; KU812, read-out: IC50 cell viability, CML leukemia cells KU812) [nM]","IC50 (U937; U-937, read-out: IC50 cell viability, Non-CML leukemia cells U937) [nM]",TGI (Tumor growth inhibition) ([1]; 10 mg/kg/day) [%],TGI (Tumor growth inhibition) ([1]; 20 mg/kg/day) [%],viability at 0.1 µM (K562 cells [2]) [%],IC50 (K562 cells [3]) [nM],GI50 [4] [nM],GI50 [5] [nM],IC50 (KU812; [8]) [nM],TGI (Tumor growth inhibition) ([1]; 5 mg/kg/day) [%]
292 ± 8,1 ± 0.2,191 ± 3.3,95 to 97,"Cc1ccc(C(=O)Nc2ccc3c(c2)C(F)(F)CC3N2CCN(C)CC2)cc1C#Cc1cnc(NC2CC2)nc1 (racemic) [Compound 37, 3-(2-(2-(Cyclopropylamino)pyrimidin-5-yl)ethynyl)-N-(1,1-difluoro-2,3-dihydro-3-(4-methylpiperazin-1-yl)-1H-indan-6-yl)-4-methylbenzamide]",,,,,,,4.32,3.4,40 ± 9.6,9.3 ± 2.5,0.4 ± 0.1,
851 ± 25.7,0.4 ± 0.1,868 ± 88.7,,"Cc1ccc(C(=O)Nc2ccc3c(c2)C(F)(F)C[C@@H]3N2CCN(C)CC2)cc1C#Cc1cnc2cccnn12 [Compound 36-(S), (S)-N-(1,1-difluoro-2,3-dihydro-3-(4-methylpiperazin-1-yl)-1H-indan-6-yl)-3-(2-(imidazo[1,2-b]pyridazin-3-yl)ethynyl)-4-methylbenzamide]",,,,,105,108,,,4.7 ± 1.3,2.1 ± 0.2,0.1 ± 0.1,
> 1000,0.6 ± 0.1,> 1000,,"CN1CCN([C@H]2CC(F)(F)c3cc(NC(=O)c4ccc(Cl)c(C#Cc5cnc6cccnn56)c4)ccc32)CC1 (single isomer, unassigned) [Compound 38-(S)]",,,,,,,,,3.8 ± 0.2,2.2 ± 0.3,0.2 ± 0.1,81

# The next lines start with the compound.
SMILES,IC50 (JURKAT; [6]) [nM],IC50 (K562; [7]) [nM],IC50 (U937; [9]) [nM],melting point [°C],IC50 (JURKAT) [nM],"IC50 (K562; K562, read-out: IC50 cell viability, CML leukemia cells K562) [nM]","IC50 (KU812; KU812, read-out: IC50 cell viability, CML leukemia cells KU812) [nM]","IC50 (U937; U-937, read-out: IC50 cell viability, Non-CML leukemia cells U937) [nM]",TGI (Tumor growth inhibition) ([1]; 10 mg/kg/day) [%],TGI (Tumor growth inhibition) ([1]; 20 mg/kg/day) [%],viability at 0.1 µM (K562 cells [2]) [%],IC50 (K562 cells [3]) [nM],GI50 [4] [nM],GI50 [5] [nM],IC50 (KU812; [8]) [nM],TGI (Tumor growth inhibition) ([1]; 5 mg/kg/day) [%]
"Cc1ccc(C(=O)Nc2ccc(CN3CCN(C)CC3)c(C(F)(F)F)c2)cc1C#Cc1cnc2cccnn12 [Ponatinib, reference compound]",,,,,295 ± 5,0.3 ± 0.1,0.1 ± 0.1,246 ± 12.5,75,94,,,,,,
"Cc1ccc(C(=O)Nc2ccc3c(c2)C(F)(F)CC3N2CCN(C)CC2)cc1C#Cc1cnc2cccnn12 (racemic) [Compound 36, N-(1,1-difluoro-2,3-dihydro-3-(4-methylpiperazin-1-yl)-1H-indan-6-yl)-3-(2-(imidazo[1,2-b]pyridazin-3-yl)ethynyl)-4-methylbenzamide]",672 ± 77.6,0.5 ± 0.1,608 ± 42.2,,,,,,,,9.48,0.87,11 ± 0.2,2.7 ± 0.2,0.2 ± 0.1,
"Cc1cn(-c2cc(NC(=O)c3ccc(C)c(C#Cc4ccc(NC5CC5)nn4)c3)cc(C(F)(F)F)c2)cn1 [Compound 23, 3-(2-(6-(Cyclopropylamino)pyridazin-3-yl)ethynyl)-4-methyl-N-(3-(4-methyl-1H-imidazol-1-yl)-5-(trifluoromethyl)phenyl)benzamide]",,,,226 to 228,,,,,,,8.6,16,,,,
